Tests used:
[1] = tested on: Human immunodeficiency virus 1; test: Antiviral activity against HIV1 by cell based luciferase assay; type: functional, organism-based
[2] = molecular target: Human immunodeficiency virus type 1 integrase (Human immunodeficiency virus 1, UniProt Q7ZJM1); test: Inhibition of HIV-1 integrase-mediated 3'-processing and strand transfer activity
[3] = tested on: Human immunodeficiency virus 1; test: Antiviral activity against HIV1 assessed as inhibition of viral replication after 6 days by cell based p24 antigen assay; settings: Human immunodeficiency virus 1, 144 h
[4] = tested on: Human immunodeficiency virus 1; test: Antiviral activity against HIV1 by cell based luciferase assay in presence of 50% serum; type: functional

Sequence of Human immunodeficiency virus type 1 integrase (Q7ZJM1 whole entry): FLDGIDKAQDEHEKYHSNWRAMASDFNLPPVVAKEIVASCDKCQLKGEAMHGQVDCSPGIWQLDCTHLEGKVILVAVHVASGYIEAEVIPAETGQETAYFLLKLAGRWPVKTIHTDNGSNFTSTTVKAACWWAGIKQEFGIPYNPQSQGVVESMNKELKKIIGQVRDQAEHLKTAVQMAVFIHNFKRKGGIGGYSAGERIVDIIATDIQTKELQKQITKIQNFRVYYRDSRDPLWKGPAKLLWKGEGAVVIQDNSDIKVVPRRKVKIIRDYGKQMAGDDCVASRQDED

EC50 [1] [µM]	IC50 [2] [µM]	EC50 [3] [µM]	Compound	fold change (FC) [4]
0.0115	0.036		O=c1c(O)c(-c2ncc(Cc3ccc(F)cc3)s2)nc2c(N3CCCS3(=O)=O)cc(N3CCOCC3)cn12	
0.032	0.02	0.0165	O=c1c(O)c(-c2ncc(Cc3ccc(F)cc3)s2)nc2ccc(N3CCOCC3)cn12	
0.014	0.042	0.00435	O=c1c(O)c(-c2ncc(Cc3ccc(F)cc3)s2)nc2c(Br)cc(N3CCOCC3)cn12	
0.215	0.775	0.028	O=C(NCc1ccc(F)cc1)c1nc2ccc(N3CCOCC3)cn2c(=O)c1O	
	0.31	0.215	O=c1c(O)c(-c2nnc(Cc3ccc(F)cc3)o2)nc2ccc(N3CCOCC3)cn12	
	0.45	0.099	O=c1c(O)c(-c2noc(Cc3ccc(F)cc3)n2)nc2ccc(N3CCOCC3)cn12	
0.198			O=c1c(O)c(-c2nnc(Cc3ccc(F)cc3)[nH]2)nc2ccc(N3CCOCC3)cn12	
	0.225	0.014	O=c1c(O)c(-c2nnc(Cc3ccc(F)cc3)s2)nc2ccc(N3CCOCC3)cn12	
> 1	> 10		O=c1c(O)c(-c2nc(Cc3ccc(F)cc3)no2)nc2ccc(N3CCOCC3)cn12	
0.0215	0.059	0.006	O=c1c(O)c(-c2ncc(Cc3ccc(F)cc3)o2)nc2ccc(N3CCOCC3)cn12	
0.062	0.045		O=c1c(O)c(-c2ncc(Cc3ccc(F)cc3)[nH]2)nc2ccc(N3CCOCC3)cn12	
0.009	0.17	0.0026	O=c1c(O)c(-c2ncc(Cc3ccc(F)cc3)o2)nc2c(I)cc(N3CCOCC3)cn12	
0.029			O=c1c(O)c(-c2ncc(Cc3ccc(F)cc3)[nH]2)nc2c(Br)cc(N3CCOCC3)cn12	
> 1			O=c1c(O)c(-c2ncc(Cc3ccc(F)cc3)o2)nc2c(N3CCCS3(=O)=O)cc(N3CCOCC3)cn12	
> 1	0.095		O=c1c(O)c(-c2ncc(Cc3ccc(F)cc3)[nH]2)nc2c(N3CCCS3(=O)=O)cc(N3CCOCC3)cn12	
0.011	0.07		CN1CCN(c2cc(N3CCOCC3)cn3c(=O)c(O)c(-c4ncc(Cc5ccc(F)cc5)[nH]4)nc23)S1(=O)=O	
0.064	0.035		O=C1OCCN1c1cc(N2CCOCC2)cn2c(=O)c(O)c(-c3ncc(Cc4ccc(F)cc4)[nH]3)nc12	
0.039	0.047		O=C1CCCN1c1cc(N2CCOCC2)cn2c(=O)c(O)c(-c3ncc(Cc4ccc(F)cc4)[nH]3)nc12	
0.086			CCN(C(=O)C(=O)N(C)C)c1cc(N2CCOCC2)cn2c(=O)c(O)c(-c3ncc(Cc4ccc(F)cc4)[nH]3)nc12	
0.006			CC(C)N1CCN(c2cc(N3CCOCC3)cn3c(=O)c(O)c(-c4ncc(Cc5ccc(F)cc5)[nH]4)nc23)C1=O	<3

From ChEMBL document CHEMBL1255515, “Design of a series of bicyclic HIV-1 integrase inhibitors. Part 2: azoles: effective metal chelators” (Bioorg Med Chem Lett, 2010)
